# Data: US20170150715A1, “METHODS OF ELIMINATING SPORES” (Lifeclean International AB, priority 2013, published 2017)
# Marks after values point to notes of the source that are not given here.
# Key:
# [1] = system: C difficile spores PCR Ribotype 023; experiment: Elimination of spores of Clostridium difficile on surfaces (Example 4; glass, brass, copper); assay type: cell-based; conditions: 10 minutes exposure; for Culture 6 PY-broth undiluted / Culture 7 PY-broth 10^−2 / Culture 8 PY-broth 10^−4 / Culture 9 PY-broth 10^−6: cotton tip smear of surface; for total amount of CFUs in the flasks (within brackets): surviving spores displaced from the surface; for amount of CFU in the undiluted PY-broth (within brackets): surviving spores remaining attached to the surface
# Excerpt: C difficile spores PCR Ribotype 023 (ECDC/Cardiff nomenclature) were transferred from a frozen sample to plates with Fastidious Anaerobe Agar (FAAAP), cultured under anaerobe conditions for 2 days. The cultures were transferred to ambient conditions and colonies of C difficile were admitted to sporulate. The spores were harvested and dissolved in sterile water (reverse osmosis (RO)), subjected to alcohol shock (70%), washed, centrifugated and collected as a suspension of spores.
# In the preparation 0.1 ml of the spore suspension was transferred to microscopy slides, sterile plates of brass or copper. When the spore suspensions have dried, 0.2 ml of the following solutions were added:
# After 10 minutes exposure to the solutions, the Glasses and the plates were each transferred to a 500 ml Glass flask to dilute and interrupt disinfection. The flasks were rotated at 200 rpm for 20 minutes.
# From each of the rotated flasks 0.1 ml was transferred to agar plates (Culture 1). The samples were diluted in two steps 1/10 in tubes. From each tube, 0.1 ml was transferred to agar plates (Cultures 2 and 3).
# The solutions in the flasks were filtered and rinsed with 3×100 ml buffered peptone water (PENAL). The filtrations were performed in two steps. At first, 1 ml was filtered, then remaining volume of solution in the flasks (approx. 249 ml). The filters were cultured on agar plates (Cultures 4 and 5).
# At two times, 40 ml samples were taken from the filtrates. These were centrifugated and the supernatant was discarded, the pellet re-suspended in 0.1 ml 0.85% NaCl solution. The entire volume was transferred to agar plates.
# In order to assess if viable spore remain on the surfaces of Glasses and the, they were smeared with moist cotton tip (all smeared in accordance with a “double-S” shape). The tip was cultured in 2 ml pre-reduced PY-broth which was diluted 1/10 in several repeated steps and cultured on agar plates (0.2 ml/plate), (Cultures 6 to 9)
# All culture plates were cultured under anaerobe conditions at 36° C. for 2 days.
# [2] = system: spores of C Difficile, Ribotype 25; experiment: Elimination of spores of C Difficile on glass surfaces, types and combinations of surface active agents (Example 6); assay type: cell-based, Clostridium difficile
# Experimental: Example 6 was designed in order to evaluate different types and combinations of surface active agents in combination with chlorine oxide for elimination of spores of C Difficile on surfaces. The following test solutions were used:
# The solutions were prepared in accordance with Examples 2, 2A and 3. RD1 and RD2 signify the anionic surfactants of Example 3 branded DOWFAX 3B2 and DOWFAX 8390, respectively. RD3 and RD4 signify the cationic surfactants of Example 2A branded AO-8 Macat and AO-12 Macat.
# A spore suspension was generated and counted in accordance with Example 4:
# Ribotype 25; 8.0×10^9 spores/mL (8.0×10^8 spores on the glass surface) approximately 80% spores in the suspension.
# (§1) The glass surfaces were prepared by transferring 0.1 ml of the spore solution to microscopy slides. After the suspension has dried, 0.2 ml of the test solutions were added to the slides for application times between 1 and 10 minutes. Subsequently, the glass surfaces were each placed in a 500 ml glass flask with 250 ml 0.85% NaCl solution and rotated at 200 rpm for 20 minutes.
# [3] = system: spore suspension Ribotype 25; experiment: Elimination of spores on glass surfaces, different contact times (Example 7); assay type: cell-based, Clostridium difficile; conditions: glass surface, contact time 10 min
# Experimental: Example 7 outlines a test with different contact for chlorine dioxide solution according to the invention. A spore suspension was generated and counted in accordance with Example 4:
# Ribotype 25; 9.6×10^8 spores/mL (9.6×10^7 spores on the glass surface) approximately 80% spores in the suspension.
# as §1
# The test solution comprising chlorine dioxide was prepared in accordance with Example 2B, comprising 1600 ppm chlorine dioxide together with 0.2% (v/v) cationic surfactant comprising equal amounts of octyl dimethylamine oxide and lauryl dimethylamine oxide). After rotation, the contents of the flasks were treated and cultured with procedures and agar plates in accordance with Example 4.
# [4] = system: spore suspension Ribotype 25; experiment: Elimination of spores on glass surfaces, different concentrations of surfactants (Example 8); assay type: cell-based, Clostridium difficile; conditions: glass surface, application time 2 minutes
# Experimental: Example 9 outlines a test with chlorine dioxide solutions of 800 and 1600 ppm having different concentration of surfactants made in accordance with Example 2A. A spore suspension was generated and counted in accordance with Example 4:
# Ribotype 25; 8.0×10^8 spores/mL (8.0×10^7 spores on the glass surface) approximately 80% spores in the suspension.
# The glass surfaces were prepared by transferring 0.1 ml of the spore solution to microscopy slides. After the suspension has dried, 0.2 ml of the test solutions were added to the slides for an application time of 2 minutes. Subsequently, the glass surfaces were each placed in a 500 ml glass flask with 250 ml 0.85% NaCl solution and rotated at 200 rpm for 20 minutes.
# After rotation, the contents of the flasks were treated and cultured with procedures and agar plates in accordance with Example 4.
# [5] = 8.0×10^8 spores on the glass surface
# [6] = spores survived not detached from the surface
# [7] = surviving spores detached from the surface
smiles,measurement,setting,value
"CCO [70% Ethanol, Ethanol]",Culture 1 0.1 mL From bottle,[1]; Brass,overgrown
same,Culture 2 Dilution 10^−1,[1]; Brass,55 CFU
same,Culture 3 Dilution 10^−2,[1]; Brass,5 CFU
same,Culture 4 Filtration 1 mL,[1]; Brass,overgrown
same,Culture 5 Filtration 249 mL,[1]; Brass,overgrown
same,Culture 6 PY-broth undiluted,[1]; Brass,overgrown
same,Culture 7 PY-broth 10^−2,[1]; Brass,overgrown
same,Culture 8 PY-broth 10^−4,[1]; Brass,74 CFU
same,Culture 9 PY-broth 10^−6,[1]; Brass,0 CFU
same,total amount of CFUs in the flasks (within brackets),[1]; Brass,(1.4 × 10^6) CFU
same,amount of CFU in the undiluted PY-broth (within brackets),[1]; Brass,(7.4 × 10^6) CFU
same,Culture 1 0.1 mL From bottle,[1]; Copper,429 CFU
same,Culture 2 Dilution 10^−1,[1]; Copper,40 CFU
same,Culture 3 Dilution 10^−2,[1]; Copper,1 CFU
same,Culture 4 Filtration 1 mL,[1]; Copper,overgrown
same,Culture 5 Filtration 249 mL,[1]; Copper,overgrown
same,Culture 6 PY-broth undiluted,[1]; Copper,overgrown
same,Culture 7 PY-broth 10^−2,[1]; Copper,overgrown
same,Culture 8 PY-broth 10^−4,[1]; Copper,79 CFU
same,Culture 9 PY-broth 10^−6,[1]; Copper,0 CFU
same,total amount of CFUs in the flasks (within brackets),[1]; Copper,(1.0 × 10^6) CFU
same,amount of CFU in the undiluted PY-broth (within brackets),[1]; Copper,(7.9 × 10^6) CFU
same,Culture 1 0.1 mL From bottle,[1]; Glass,overgrown
same,Culture 2 Dilution 10^−1,[1]; Glass,517 CFU
same,Culture 3 Dilution 10^−2,[1]; Glass,46 CFU
same,Culture 4 Filtration 1 mL,[1]; Glass,overgrown
same,Culture 5 Filtration 249 mL,[1]; Glass,overgrown
same,Culture 6 PY-broth undiluted,[1]; Glass,overgrown
same,Culture 7 PY-broth 10^−2,[1]; Glass,overgrown
same,Culture 8 PY-broth 10^−4,[1]; Glass,39 CFU
same,Culture 9 PY-broth 10^−6,[1]; Glass,1 CFU
same,total amount of CFUs in the flasks (within brackets),[1]; Glass,(1.2 × 10^7) CFU
same,amount of CFU in the undiluted PY-broth (within brackets),[1]; Glass,(3.9 × 10^6) CFU
same,0.1 mL Diluted 10^−1,[2]; [5],overgrown
same,0.1 mL Diluted 10^−2,[2]; [5],240 CFUs
same,0.1 mL From bottle,[2]; [5],overgrown
same,Filtration 1 mL,[2]; [5],overgrown
same,PY-broth Diluted 10^−2,[2]; [5],overgrown
same,PY-broth Diluted 10^−4,[2]; [5],86 CFUs
same,PY-broth Undiluted,[2]; [5],overgrown
same,number of CFUs in the undiluted PY-broth (brackets),[2]; [6],(8.6 × 10^6) CFUs
same,number of CFUs in the flask (brackets),[2]; [7],(6.0 × 10^7) CFUs
same,Number cfu Filtration 249 mL,[3],overgrown
same,Number cfu × 10 PY-broth Undiluted,[3],overgrown
same,Number cfu × 10^3 PY-broth Diluted 10^−2,[3],overgrown
same,Number cfu × 10^5 PY-broth Diluted 10^−4,[3],67 cfu
same,Number cfu × 10 × 250 0.1 mL From bottle,[3],overgrown
same,Number cfu × 100 × 250 0.1 mL Diluted 10^−1,[3],overgrown
same,Number cfu × 250 Filtration 1 mL,[3],overgrown
same,Number cfu × 1000 × 250 0.1 mL Diluted 10^−2,[3],103 cfu
same,number of CFUs in the undiluted PY-broth (brackets),[3]; [6],(6.7 × 10^6) CFUs
same,number of CFUs in the flask (brackets),[3]; [7],(2.6 × 10^7) CFUs
same,Number cfu × 100 × 250 0.1 mL Diluted 10^−2,"[4]; head lines shifted, by Table 4 layout: 0.1 mL Diluted 10^−1",overgrown
same,Number cfu × 1000 × 250 PY-broth Undiluted,"[4]; head lines shifted, by Table 4 layout: 0.1 mL Diluted 10^−2",81 cfu
same,Number cfu × 10 × 250 0.1 mL Diluted 10^−1,"[4]; head lines shifted, by Table 4 layout: 0.1 mL From bottle",overgrown
same,Number cfu × 250 0.1 mL From bottle,"[4]; head lines shifted, by Table 4 layout: Filtration 1 mL",overgrown
same,Number cfu Filtration 1 mL,"[4]; head lines shifted, by Table 4 layout: Filtration 249 mL",overgrown
same,Number cfu × 10^3 PY-broth Diluted 10^−4,"[4]; head lines shifted, by Table 4 layout: PY-broth Diluted 10^−2",overgrown
same,Number cfu × 10^5 Filtration 249 mL,"[4]; head lines shifted, by Table 4 layout: PY-broth Diluted 10^−4",28 cfu
same,Number cfu × 10 PY-broth Diluted 10^−2,"[4]; head lines shifted, by Table 4 layout: PY-broth Undiluted",overgrown
same,number of CFUs in the undiluted PY-broth (brackets),[4]; [6],(2.8 × 10^6) CFUs
same,number of CFUs in the flask (brackets),[4]; [7],(2.0 × 10^7) CFUs
